Experiments:
[1] = tested on: PC-9 lung cancer cells; assay: Anticancer effect in mouse model with PC-9 lung cancer cells; format: in vivo, Balb/c Nude Mice; conditions: PC-9 model; singular treatment with EGFR targeting drug, PO QD (Gefitinib 10 mg/kg, Osimertinib 3 mg/kg)
Experimental: (§1) The PC-9 cell line was purchased from NanJing Cobioer Biological Technology Co., Ltd. Cells were kept in RPMI-1640 containing 10% FBS, and cultured in a 37° C. humidified cell culture incubator at 5% C2. All animal experiments were carried out according to the Animal Use and Management Guidelines of Shanghai Medicilon Inc. Under sterile conditions, 2×10^6 PC-9 tumor cells (0.1 mL, cell:Matrigel®=1:1) was administered to the right waist of each animal by S.C. administration. Tumor size and animal body weight were measured twice weekly, and clinical symptoms were recorded daily. The mice will be administered individually according to most recent body weight. The tumors were measured using calipers using two measurements, length (a) and width (b). The volume of the tumors was calculated individually as follows, from the two measured diameters of the tumors: tumor volume (mm^3)=(a×b^2)/2.

[2] = tested on: NCI-H1975 lung cancer cells; assay: Anticancer effect in mouse model with NCI-H1975 lung cancer cells; format: in vivo, Balb/c Nude Mice; conditions: singular treatment with Osimertinib 3.5 mg/kg PO QD
Experimental: as §1, with “NCI-H1975” for “PC-9”, “the Institute of Biochemistry and Cell Biology (Shanghai Institutes for” for “NanJing Cobioer”, “Sciences, CAS).” for “Technology Co., Ltd.”, “CO2.” for “C2.”, “Under sterile conditions, 2×10^6 PC-9 tumor cells (0.1 mL, cell:Matrigel®=1:1) was administered to the right waist of each animal by S.C. administration.” left out

Row | SMILES | cancer cell regrowth during treatment [1] | cancer cell regrowth during treatment [2]
1 | COc1cc2ncnc(Nc3ccc(F)c(Cl)c3)c2cc1OCCCN1CCOCC1 [Gefitinib, reference compound] | early regrowth of cancer cells was observed | –
2 | C=CC(=O)Nc1cc(Nc2nccc(-c3cn(C)c4ccccc34)n2)c(OC)cc1N(C)CCN(C)C [Osimertinib, reference compound] | early regrowth of cancer cells was observed | early regrowth of cancer cells was observed
